Tests used:
PTZ-induced seizures [1] = assay: PTZ-induced seizures with adenosine receptor antagonist pretreatment; format: in vivo, mice; settings: PTZ 85 mg/kg
Procedure: (§1) KA was dissolved in saline and the pH was adjusted to neutrality. The final concentration of KA was 0.7 µg/µl, and the convulsant dose was 1 µl (i.c.v.). […] The selective adenosine receptor antagonist DPCPX or SCH58261 was administered (i.p.) 5 min before administration of B2 or vehicle.
Twenty min later, mice were admdinistered with PTZ (85 mg/kg).

4-AP-induced seizures = 4-AP-induced seizures in mice; format: in vivo; settings: 80 mg/kg, positive control, 4-AP 13 mg/kg
Procedure: as §1
(§2) Mice were injected with B2 (1.25, 5, 20 mg/kg), carbamazepine (80 mg/kg) or vehicle 20 min before administration of strychnine (1.5 mg/kg) or 4-AP (13 mg/kg). […] The time of latency to seizure onset and mortality rate were recorded.

[2] = test system: strychnine-induced seizures; assay: Strychnine-induced seizures in mice; format: in vivo; settings: 80 mg/kg, positive control; strychnine 1.5 mg/kg i.p.
Procedure: as §1, §2

KA-induced seizures = KA-induced seizures in mice; format: in vivo; settings: 10 mg/kg, positive control, KA 0.7 µg i.c.v.
Procedure: as §1
The left lateral ventricle (0.6 mm posterior, 1.9 mm lateral, and 2.1 mm ventral to bregma) was cannulated as described. After a 7-day recovery period, mice were injected with either B2 (1.25, 5, 20 mg/kg) or vehicle. Twenty minutes later, an intracerebroventricular injection of KA (0.7 µg/µl, 1 µl) was administered without anesthesia. The animals were then observed for a minimum of 60 min. Seizure severity was determined according to the scoring system described by Racine. At the end of the experiment, cannulae placement was verified.

PTZ-induced seizures [3] = assay: PTZ-induced seizures in mice; format: in vivo; settings: 10 mg/kg i.p.; PTZ 85 mg/kg s.c.; P<0.001
Procedure: The latency of seizure onset, number of seizures, and mortality rate was recorded for the picrotoxin-injected mice. For the PTZ-injected mice, we recorded the latency of seizure onset, number of seizures, and presence of clonic seizures.

SMILES: CCCn1c(=O)c2[nH]c(C3CCCC3)nc2n(CCC)c1=O [DPCPX, 8-Cyclopentyl-1,3-dipropylxanthine]
- effect on onset time of seizure, antagonist alone (PTZ-induced seizures [1]; DPCPX 0.3125–1.25 mg/kg i.p. alone): did not affect
- effect on the delaying effect of B2 on onset times of seizure (PTZ-induced seizures [1]; DPCPX pretreatment 5 min before B2 5 mg/kg, P<0.05): significantly blocked

SMILES: Nc1nc2c(cnn2CCc2ccccc2)c2nc(-c3ccco3)nn12 [SCH58261, 5-amino-7-(β-phenylethyl)-2-(2-furyl)-pyrazolo-[4,3-e]-1,2,4-triazolo[1,5-c]-pyrimidine]
- effect on onset time of seizure, antagonist alone (PTZ-induced seizures [1]; SCH58261 0.08–1.25 mg/kg i.p. alone): did not affect
- effect on the delaying effect of B2 on seizure onset time (PTZ-induced seizures [1]; SCH58261 pretreatment 5 min before B2 5 mg/kg): did not affect the delaying effect

SMILES: NC(=O)N1c2ccccc2C=Cc2ccccc21 [Carbamazepine, carbamazepine, reference compound]
- effect on latency to seizure onset (4-AP-induced seizures; P<0.001): significantly prolonged
- effect on mortality rate (4-AP-induced seizures; P<0.05): reduced the mortality rate
- protection against strychnine-induced seizures [2]: complete protection

SMILES: CN1C(=O)CN=C(c2ccccc2)c2cc(Cl)ccc21 [Diazepam, diazepam, reference compound]
- protection against KA-induced seizures (KA-induced seizures): significant protection
- protection against PTZ-induced seizures (PTZ-induced seizures [3]): completely protected
